Measurements taken from publication PMC9613470, “Diverse MarR bacterial regulators of auxin catabolism in the plant microbiome” (Nature Microbiology, 2022).
Where two headings read alike, the source gives them in different places.

Legend:
[1] = test system: Variovorax paradoxus CL14 MarR_73 S28A; assay: ITC binding of duplex oligo DNA to MarR_73 S28A
[2] = biological target: Variovorax paradoxus CL14 MarR_73 (Variovorax paradoxus, UniProt C5CSP2); assay: biochemical; assay type: binding
Protocol: The coding sequence for each gene can be found in Supplementary Table 10. MarR expression plasmids were synthesized as codon-optimized genes for E. coli expression by BioBasic in the pLIC-His N-term vector (pMCSG7) and transformed into E. coli BL21 (DE3) Gold cells for expression. […] At an OD600 of 0.8, protein expression was induced by the addition of 0.1 mM IPTG and incubation continued overnight. Cells were collected by centrifugation at 4,500 × g for 20 min at 4 °C in a Sorvall (model RC-3B) swinging bucket centrifuge. Cell pellets were resuspended in buffer A (20 mM potassium phosphate, pH 7.4, 50 mM imidazole, 500 mM NaCl), DNase, lysozyme and a Roche Complete EDTA-free protease inhibitor tablet. Resuspended cells were sonicated and clarified via centrifugation at 17,000 × g for 60 min in a Sorvall (model RC-5B) swinging bucket centrifuge. The lysate was applied to a nickel-nitrilotriacetic acid HP column (GE Healthcare) on an Aktaxpress Fast Performance Liquid Chromatography (FPLC) system (Amersham Bioscience) and washed with buffer A. Protein was eluted with buffer B (20 mM potassium phosphate, pH 7.4, 500 mM imidazole, 500 mM NaCl). Fractions containing the protein of interest were combined and passed over a HiLoadTM 16/60 SuperdexTM 200 gel filtration column. Proteins were eluted in S200 buffer (20 mM HEPES, pH 7.4, 300 mM NaCl). Fractions were combined and concentrated for long-term storage at −80 °C.
All ITC measurements were performed at 25 °C using an Auto-ITC200 microcalorimeter (MicroCal/GE Healthcare). The buffer employed was 20 mM HEPES, pH 7.4, 50 mM NaCl and 0.5% dimethly sulfoxide (DMSO) for protein/ligand binding and 20 mM HEPES, pH 7.4 and 300 mM NaCl for DNA/protein binding experiments. For ligand binding experiments, the calorimetry cell (volume […]) was loaded with MarR wild-type, mutant or homologue protein at a concentration of 50 μM. The syringe was loaded with a ligand concentration of 0.5 or 2 mM. […] A typical injection protocol included a single 0.2 μl first injection followed by 20 1.5 μl injections of the syringe sample into the calorimetry cell. The spacing between injections was kept at 180 s and the reference power at 8 μcal s^−1. […] Two independent ITC measurements were performed for each condition.

[3] = ITC, 25 °C, 20 mM HEPES pH 7.4, 300 mM NaCl
[4] = ITC, 25 °C, 20 mM HEPES pH 7.4, 300 mM NaCl, duplex oligo in cell, protein in syringe
[5] = ITC, 25 °C, 20 mM HEPES pH 7.4, 50 mM NaCl, 0.5% DMSO, mean of two measurements ± standard error

Sequence of Variovorax paradoxus CL14 MarR_73 (C5CSP2 entry or part of it): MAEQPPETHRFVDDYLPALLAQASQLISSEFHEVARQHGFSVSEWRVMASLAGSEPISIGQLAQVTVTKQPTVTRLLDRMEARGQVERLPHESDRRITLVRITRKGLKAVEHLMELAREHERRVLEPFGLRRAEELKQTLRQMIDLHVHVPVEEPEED
Sequence of Variovorax paradoxus CL14 MarR_73 S28A (as listed by the source, stated change not applied): as the sequence (C5CSP2 entry or part of it) above, with S28A counted along it

AATTCATGATTGTGGATACATTCA: 24 bp MarR_73 DNA binding sequence between genes 73 and 72 (antisense TTAAGTACTAACACCTATGTAAGT; chemistry not fully specified; one strand is listed 3' to 5')
Kd ([1]; ITC in 150 mM NaCl): 0.151 ± 0.025 µM
N ([1]; ITC in 150 mM NaCl): 2.51 ± 0.26
N (MarR monomer binding stoichiometry to duplex DNA) [1, 3]: 2.5 ± 0.2
Kd [1, 4]: 0.21 ± 0.09 µM

Oc1ccccc1O [Catachol (1,2-Dihydroxybenzene), 1,2-Dihydroxybenzene]
Kd [2]: 13 ± 0.1 µM
N (ligand binding stoichiometry to the MarR monomer) [2, 5]: 0.76 ± 0.01

O=C(O)Cc1cccc2ccccc12 [1-Naphthaleneacetic Acid]
Kd [2]: 0.33 ± 0.01 µM
N (ligand binding stoichiometry to the MarR monomer) [2, 5]: 0.74 ± 0.01

GTAATTCATGATTGTGGATACATTCATTTG: 30 bp duplex oligo DNA, sequence between genes 73 and 72 of the Variovorax IAA degradation locus (antisense CATTAAGTACTAACACCTATGTAAGTAAAC; chemistry not fully specified; one strand is listed 3' to 5')
N (MarR monomer binding stoichiometry to duplex DNA) [1, 3]: 2.0 ± 0.1
Kd [1, 4]: 0.27 ± 0.02 µM

O=C(O)c1c[nH]c2ccccc12 [Indole-3-Carboxylic Acid]
Kd [2]: 4.6 ± 0.5 µM
N (ligand binding stoichiometry to the MarR monomer) [2, 5]: 0.67 ± 0.03

O=C(O)Cc1ccccc1 [Phenylacetic Acid]
Kd [2]: 10 ± 0.1 µM
N (ligand binding stoichiometry to the MarR monomer) [2, 5]: 0.79 ± 0.02

O=C(O)c1ccccc1O [Salicylic Acid]
Kd [2]: 14 ± 3 µM
N (ligand binding stoichiometry to the MarR monomer) [2, 5]: 0.90 ± 0.01

AATTCATGATTGTGGATACATT: 22 bp duplex oligo DNA, sequence between genes 73 and 72 (antisense TTAAGTACTAACACCTATGTAA; chemistry not fully specified; one strand is listed 3' to 5')
Kd ([1]; ITC in 150 mM NaCl): 0.428 ± 0.002 µM
N ([1]; ITC in 150 mM NaCl): 1.75 ± 0.014
N (MarR monomer binding stoichiometry to duplex DNA) [1, 3]: 2.1 ± 0.3
Kd [1, 4]: 0.52 ± 0.09 µM

Nc1c(Cl)c(Cl)nc(C(=O)O)c1Cl [Picloram]
Kd [2]: 16 ± 0.4 µM
N (ligand binding stoichiometry to the MarR monomer) [2, 5]: 0.96 ± 0.01

O=C(O)COc1ccc(Cl)cc1Cl [2,4-Dichorophenoxyacetic Acid]
N (ligand binding stoichiometry to the MarR monomer) [2, 5]: 1.40 ± 0.01
Kd ([2]; ITC, 25 °C, 20 mM HEPES pH 7.4, 50 mM NaCl, 0.5% DMSO, mean of two measurements ± standard error, read-out: KD): 11 ± 1 µM

O=C(O)CCCc1c[nH]c2ccccc12 [Indole-3-Butyric Acid]
Kd [2]: 18 ± 1 µM
N (ligand binding stoichiometry to the MarR monomer) [2, 5]: 0.80 ± 0.01

O=C(O)Cc1c[nH]c2ccc(O)cc12 [5-Hydroxyindole-3-Acetic Acid]
Kd [2]: 10 ± 0.3 µM
N (ligand binding stoichiometry to the MarR monomer) [2, 5]: 0.78 ± 0.25

O=C(O)CCc1c[nH]c2ccccc12 [Indole-3-propionic Acid]
Kd [2]: 17 ± 0.1 µM
N (ligand binding stoichiometry to the MarR monomer) [2, 5]: 0.81 ± 0.05

O=C(O)c1ccccc1 [Benzoic Acid]
Kd [2]: 13 ± 1 µM
N (ligand binding stoichiometry to the MarR monomer) [2, 5]: 0.80 ± 0.01
